The values that follow come from patent US20060106078A1, “Prostamide receptor antagonists” (Allergan, Inc., priority 2003, published 2006).

SMILES strings stand for the structures.

Common to all, as to type: cell-based
Assay [1] concerns cat iris sphincter (PGE2 response). Nature of the assay: Cat iris sphincter contraction: effect on PGE2 response. To be noted: isolated cat iris sphincter, contractile response relative to 1×10^−7 M PGF2α, 30 min antagonist incubation; FIG. 4. The protocol:
(§1) The compounds of Examples 1 and 2 were tested for prostamide antagonist activity as follows:
(§2) The smooth muscle tension of isolated tissue preparations was measured isometrically with force displacement transducers (Grass FT-03) and recorded on a Grass polygraph (Model 7G). The organ baths contained Krebs solution maintained at 37° C. and gassed with 95% O2: 5% CO2 to give a pH of 7.4. The Krebs solution had the following composition (mM): NaCl, 118.0; KCl, 4.7; KH2PO4, 1.2; CaCl2, 1.9; MgSO4, 1.18; NaHCO3, 25.0; glucose, 11.7; indomethacin, 0.001.
(§3) Adult domestic cats were sacrificed by intravenous overdose of sodium pentobarbitol (Anthony, Arcadia, Calif., USA). The eyes were enucleated immediately and placed on ice. The iris sphincter from each eye was dissected to provide two strips ˜3 mm wide and 15-20 mm long. The sphincter muscle was mounted vertically under 50 mg tension in a jacketed 10 ml organ bath. A 60 min. equilibration period was allowed before commencing each experiment. The response to 1×10^−7 M PGF2α was determined at the beginning of each experiment as a reference. After complete washout, and return to baseline tension, tissues were allowed to re-equilibrate for 30 min. Antagonist or vehicle were then added. […] Activity of test compounds was determined as contractile responses and expressed relative to the reference standard 1×10^−7 M PGF2α.

In assay [2] the test system is cat iris sphincter (PGF2α response). Nature of the assay: Cat iris sphincter contraction: effect on PGF2α response. To be noted: isolated cat iris sphincter, contractile response relative to 1×10^−7 M PGF2α, 30 min antagonist incubation; FIG. 1, FIG. 2. How it is done:
as §1, §2, §3

Assay [3] deals with cat iris sphincter (prostamide F2α response). Nature of the assay: Cat iris sphincter contraction: antagonism of prostamide F2α response. The note with it: isolated cat iris sphincter, contractile response relative to 1×10^−7 M PGF2α, 30 min antagonist incubation; FIG. 1, FIG. 2. How it is done:
as §1, §2, §3

The test system of assay [4] is cat iris sphincter (prostamide D2 response). Nature of the assay: Cat iris sphincter contraction: antagonism of prostamide D2 response. The note with it: isolated cat iris sphincter, contractile response relative to 1×10^−7 M PGF2α, 30 min antagonist incubation; FIG. 3. How it is done:
as §1, §2, §3

Assay [5] relates to cat iris sphincter (PGD2 response). Nature of the assay: Cat iris sphincter contraction: effect on PGD2 response. To be noted: isolated cat iris sphincter, contractile response relative to 1×10^−7 M PGF2α, 30 min antagonist incubation; FIG. 3. How it is done:
as §1, §2, §3

Assay [6] deals with cat iris sphincter (prostamide E2 response). Nature of the assay: Cat iris sphincter contraction: antagonism of prostamide E2 response. The note with it: isolated cat iris sphincter, contractile response relative to 1×10^−7 M PGF2α, 30 min antagonist incubation; FIG. 4. How it is done:
as §1, §2, §3

Take `CCNC(=O)CCc1ccc(F)cc1CC1C2CCC(O2)C1c1nc(C(=O)NCCCCC2CCCCC2)co1` (centres unmarked) [Example 1, 2-{3-[2-(2-Ethylcarbamoyl-ethyl)-5-fluoro-benzyl]-7-oxa-bicyclo[2.2.1]hept-2-yl}-oxazole-4-carboxylic acid (4-cyclohexyl-butyl)-amide]: the “effect on response curve of PGE2” value in assay [1] is on record as “does not effect the response curve”. Besides, in assay [2], the “effect on response curve of PGF2α” value is recorded as “does not effect the response curve”. Further, the “prostamide F2α antagonist activity (effect on response curve of prostamide F2α)” value in assay [3] is on record as “displaces the response curve”. Also, the “prostamide D2 antagonist activity (effect on response curve of prostamide D2)” value in assay [4] is recorded as “displaces the response curve”. Further, in assay [5], the “effect on response curve of PGD2” value was “does not effect the response curve”. The “prostamide E2 antagonist activity (effect on response curve of prostamide E2)” value in assay [6] is “displaces the response curve”.

In the case of `O=C(CCc1ccc(F)cc1CC1C2CCC(O2)C1c1nc(C(=O)NCCCCC2CCCCC2)co1)NCCO` (centres unmarked) [Example 2, 2-(3-{5-Fluoro-2-[2-(2-hydroxy-ethycarbamoyl)-ethyl]-benzyl}-7-oxa-bicyclo[2.2.1]hept-2-yl)-oxazole-4-carboxylic acid (4-cyclohexyl-butyl)-amide], the “effect on response curve of PGF2α” value in assay [2] is given as “does not effect the response curve”. Besides, in assay [3], the “prostamide F2α antagonist activity (effect on response curve of prostamide F2α)” value is given as “displaces the response curve”.
